Target: T1, human mPGES-1 (Homo sapiens, UniProt O14684)
T1 sequence (O14684 1-152): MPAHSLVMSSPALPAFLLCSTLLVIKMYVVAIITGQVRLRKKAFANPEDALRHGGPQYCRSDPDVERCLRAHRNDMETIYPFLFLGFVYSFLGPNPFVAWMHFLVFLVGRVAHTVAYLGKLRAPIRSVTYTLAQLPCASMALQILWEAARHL
Test: Microsomal prostaglandin E synthase biochemical assay
Conditions: microsome preparation containing human mPGES-1; PGH2 10.8 μM, GSH 2.5 mM, pH 6.8; PGE2 by HTRF; average of at least n=2
Experimental: Compounds were tested as inhibitors of microsomal prostaglandin E synthase activity in microsomal prostaglandin E synthase assays and whole cell assays. These assays measure prostaglandin E2 (PGE2) synthesis which is taken as a measure of prostaglandin E synthase activity. Microsomal prostaglandin E synthase biochemical assays used microsomal prostaglandin E synthase-1 in microsomal preparations. The source of the microsomes can be for example interleukin-1β-stimulated human A549 cells (which express human mPGES-1) or Sf9 cells transfected with plasmids encoding human mPGES-1 cDNA. The whole blood assay [described by Patrignani, P. et al., Journal of Pharmacology and Experimental Therapeutics, 1994, vol. 271, pp 1705-1712] was used as the whole cell assay for testing the compounds. Whole blood provides a protein and cell rich milieu for the study of biochemical efficacy of anti-inflammatory compounds such as prostaglandin synthase inhibitors. To study the inhibitory activities of these compounds, human blood was stimulated with lipopolysaccharide (LPS) for typically 16 hours to induce mPGES-1 expression, after which the concentration of produced PGE2 was measured by competitive-immuno assay (homogeneous time-resolved fluorescence, HTRF) as read out for effectiveness against mPGES-1-dependent PGE2 production.
Microsomal Prostaglandin E Synthase Biochemical Assay
A solution of test compound was added to a diluted microsome preparation containing human mPGES-1 and pre-incubated for 15 minutes in potassium phosphate buffer pH 6.8 with cofactor glutathione (GSH). Corresponding solutions without test compound were used as positive controls, and corresponding solutions without test compound and without microsomes were used as negative controls. The enzymatic reaction was then started by addition of the substrate PGH2 in an organic solution (dry acetonitrile).
The typical reaction conditions of the enzymatic reaction were thus: Test compound: ranging from 60 μM to 0.002 μM, or zero in positive and negative controls; potassium phosphate buffer pH 6.8: 50 mM; GSH: 2.5 mM; mPGES-1-containing microsomes: 2 μg/mL (sample and positive controls) or 0 μg/mL (negative control); PGH2: 10.8 μM; Acetonitrile: 7.7% (v/v); DMSO: 0.6% (v/v). The reaction was stopped after one minute by adding an acidic solution (pH 1.9) of ferric chloride and citrate (final concentrations 7 mM and 47 mM respectively), by which the PGH2 was sequestered (the PGH2 is reduced to mainly 12-hydroxy heptadecatrineoic acid (12-HHT) which is not detected by the subsequent PGE2 detection step). The resulting solution was then pH neutralized by addition of potassium phosphate buffer, prior to diluting an aliquot of the resulting solution in a weak potassium phosphate buffer (50 mM, pH 6.8) containing 0.2% BSA (w/v). [Adapted from Jacobsson et al., Proc. Natl. Acad. Sci. USA, 1999, vol. 96, pp. 7220-7225]The PGE2 formed was quantified by use of a commercial HTRF based kit (catalogue #62PG2PEC or #62P2APEC from Cisbio International). 100% activity was defined as the PGE2 production in positive controls subtracted by the PGE2 production in the negative controls. IC50 values were then determined using standard procedures.
The potency is expressed as IC50 and the value indicated is an average of at least n=2.

IC50 [nM]	SMILES
160	NS(=O)(=O)c1ccc(F)cc1NS(=O)(=O)/C=C/c1ccc(-c2ccccc2)cc1 [Example 53, 4-Fluoro-2-[[(E)-2-(4-phenylphenyl)ethenyl]sulfonylamino]benzenesulfonamide]
270	NS(=O)(=O)c1cc(F)ccc1NS(=O)(=O)/C=C/c1cccc(C(F)(F)F)c1 [Example 54, 5-Fluoro-2-[[(E)-2-[3-(trifluoromethyl)phenyl]ethenyl]sulfonylamino]-benzenesulfonamide]
360	COc1ccccc1/C=C/S(=O)(=O)Nc1ccc(F)cc1S(N)(=O)=O [Example 55, 5-Fluoro-2-[[(E)-2-(2-methoxyphenyl)ethenyl]sulfonylamino]benzenesulfonamide]
530	NS(=O)(=O)c1c(F)cccc1NS(=O)(=O)/C=C/c1cccc(Cl)c1 [Example 56, 2-[[(E)-2-(3-Chlorophenyl)ethenyl]sulfonylamino]-6-fluoro-benzenesulfonamide]
620	COc1ccccc1/C=C/S(=O)(=O)Nc1cccc(F)c1S(N)(=O)=O [Example 57, 2-Fluoro-6-[[(E)-2-(2-methoxyphenyl)ethenyl]sulfonylamino]benzenesulfonamide]
300	COc1ccccc1/C=C/S(=O)(=O)Nc1cc(F)ccc1S(N)(=O)=O [Example 58, 4-Fluoro-2-[[(E)-2-(2-methoxyphenyl)ethenyl]sulfonylamino]benzenesulfonamide]
2300	NS(=O)(=O)c1cccc(F)c1NS(=O)(=O)/C=C/c1ccc(-c2ccccc2)cc1 [Example 59, 3-Fluoro-2-[[(E)-2-(4-phenylphenyl)ethenyl]sulfonylamino]benzenesulfonamide]
2400	COc1ccccc1/C=C/S(=O)(=O)Nc1c(F)cccc1S(N)(=O)=O [Example 60, 3-Fluoro-2-[[(E)-2-(2-methoxyphenyl)ethenyl]sulfonylamino]benzenesulfonamide]
2400	NS(=O)(=O)c1ccc(F)cc1NS(=O)(=O)/C=C/c1cccc(C(F)(F)F)c1 [Example 61, 4-Fluoro-2-[[(E)-2-[3-(trifluoromethyl)phenyl]ethenyl]sulfonylamino]-benzenesulfonamide]
2500	NS(=O)(=O)c1c(F)cccc1NS(=O)(=O)/C=C/c1ccccc1F [Example 62, 2-Fluoro-6-[[(E)-2-(2-fluorophenyl)ethenyl]sulfonylamino]benzenesulfonamide]
3000	Cc1ccc(NS(=O)(=O)/C=C/c2cccc(Cl)c2)c(S(N)(=O)=O)c1 [Example 63, 2-[[(E)-2-(3-Chlorophenyl)ethenyl]sulfonylamino]-5-methyl-benzenesulfonamide]
3100	NS(=O)(=O)c1cccc(F)c1NS(=O)(=O)/C=C/c1cccc(Cl)c1 [Example 64, 2-[[(E)-2-(3-Chlorophenyl)ethenyl]sulfonylamino]-3-fluoro-benzenesulfonamide]
3800	NS(=O)(=O)c1cccc(F)c1NS(=O)(=O)/C=C/c1cccc(C(F)(F)F)c1 [Example 65, 3-Fluoro-2-[[(E)-2-[3-(trifluoromethyl)phenyl]ethenyl]sulfonylamino]-benzenesulfonamide]

The next lines start with the compound.

SMILES	IC50 [nM]
NS(=O)(=O)c1ccc(F)cc1NS(=O)(=O)/C=C/c1ccc(-c2ccco2)cc1 [Example 34, 4-Fluoro-2-[[(E)-2-[4-(2-furyl)phenyl]ethenyl]sulfonylamino]benzenesulfonamide]	120
NS(=O)(=O)c1cc(F)ccc1NS(=O)(=O)/C=C/c1ccc(-c2ccco2)cc1 [Example 35, 5-Fluoro-2-[[(E)-2-[4-(2-furyl)phenyl]ethenyl]sulfonylamino]benzenesulfonamide]	170
NS(=O)(=O)c1c(F)cccc1NS(=O)(=O)/C=C/c1ccc(-c2ccco2)cc1 [Example 36, 2-Fluoro-6-[[(E)-2-[4-(2-furyl)phenyl]ethenyl]sulfonylamino]benzenesulfonamide]	57
CSc1ccc(/C=C/S(=O)(=O)Nc2cc(F)ccc2S(N)(=O)=O)cc1 [Example 37, 4-Fluoro-2-[[(E)-2-(4-methylsulfanylphenyl)ethenyl]sulfonylamino]-benzenesulfonamide]	160
CSc1ccc(/C=C/S(=O)(=O)Nc2ccc(F)cc2S(N)(=O)=O)cc1 [Example 38, 5-Fluoro-2-[[(E)-2-(4-methylsulfanylphenyl)ethenyl]sulfonylamino]-benzenesulfonamide]	220
CSc1ccc(/C=C/S(=O)(=O)Nc2cccc(F)c2S(N)(=O)=O)cc1 [Example 39, 2-Fluoro-6-[[(E)-2-(4-methylsulfanylphenyl)ethenyl]sulfonylamino]-benzenesulfonamide]	1400
CSc1ccc(/C=C/S(=O)(=O)Nc2ccccc2S(N)(=O)=O)cc1 [Example 40, 2-[[(E)-2-(4-Methylsulfanylphenyl)ethenyl]sulfonylamino]benzenesulfonamide]	1200
NS(=O)(=O)c1ccc(F)cc1NS(=O)(=O)/C=C/c1ccc(OC(F)F)cc1 [Example 41, 2-[[(E)-2-[4-(Difluoromethoxy)phenyl]ethenyl]sulfonylamino]-4-fluoro-benzenesulfonamide]	1100
NS(=O)(=O)c1cc(F)ccc1NS(=O)(=O)/C=C/c1ccc(OC(F)F)cc1 [Example 42, 2-[[(E)-2-[4-(Difluoromethoxy)phenyl]ethenyl]sulfonylamino]-5-fluoro-benzenesulfonamide]	1600
NS(=O)(=O)c1c(F)cccc1NS(=O)(=O)/C=C/c1ccc(OC(F)F)cc1 [Example 43, 2-[[(E)-2-[4-(Difluoromethoxy)phenyl]ethenyl]sulfonylamino]-6-fluoro-benzenesulfonamide]	110
NS(=O)(=O)c1cc(CO)ccc1NS(=O)(=O)CCc1ccc(Cl)cc1 [Example 44, 2-[2-(4-Chlorophenyl)ethylsulfonylamino]-5-(hydroxymethyl)benzenesulfonamide]	750
Cc1ccc(NS(=O)(=O)CCc2ccc(Cl)cc2)c(S(N)(=O)=O)c1 [Example 45, 2-[2-(4-Chloro-phenyl)-ethanesulfonylamino]-5-methylbenzenesulfonamide]	1300
NS(=O)(=O)c1cc(OCc2ccccn2)ccc1NS(=O)(=O)CCc1ccc(Cl)cc1 [Example 46, 2-[2-(4-Chlorophenyl)ethylsulfonylamino]-5-(pyridin-2-ylmethoxy)benzenesulfonamide]	1100
Cc1nnc(COc2ccc(NS(=O)(=O)CCc3ccc(Cl)cc3)c(S(N)(=O)=O)c2)o1 [Example 47, 2-[2-(4-Chlorophenyl)ethylsulfonylamino]-5-[(5-methyl-1,3,4-oxadiazol-2-yl)methoxy]benzenesulfonamide]	1600
NS(=O)(=O)c1ccccc1NS(=O)(=O)/C=C/c1ccccc1Cl [Example 48, 2-[2-(2-Chloro-phenyl)-ethenesulfonylamino]-benzenesulfonamide]	590
COc1cc(Cl)ccc1/C=C/S(=O)(=O)Nc1ccccc1S(N)(=O)=O [Example 49, 2-[2-(4-Chloro-2-methoxy-phenyl)-ethenesulfonylamino]-benzenesulfonamide]	36
NS(=O)(=O)c1c(F)cccc1NS(=O)(=O)/C=C/c1ccc(-c2ccccc2)cc1 [Example 50, 2-Fluoro-6-[[(E)-2-(4-phenylphenyl)ethenyl]sulfonylamino]benzenesulfonamide]	130
NS(=O)(=O)c1cc(F)ccc1NS(=O)(=O)/C=C/c1cccc(Cl)c1 [Example 51, 2-[[(E)-2-(3-Chlorophenyl)ethenyl]sulfonylamino]-5-fluoro-benzenesulfonamide]	4900
NS(=O)(=O)c1cc(F)ccc1NS(=O)(=O)/C=C/c1ccc(-c2ccccc2)cc1 [Example 52, 5-Fluoro-2-[[(E)-2-(4-phenylphenyl)ethenyl]sulfonylamino]benzenesulfonamide]	84

— patent publication US20090163586A1, “Bis-(Sulfonylamino) Derivatives in Therapy 205” (AstraZeneca AB, priority 2007, published 2009)
